According to ChEMBL document CHEMBL5236572, “Bioactive Aurones, Indanones, and Other Hemiindigoid Scaffolds: Medicinal Chemistry and Photopharmacology Perspectives” (J Med Chem, 2022):
pIC50, pKi: −log10 of the molar value. In brackets after ≈: the same amount, converted by molar mass.

Key:
[1] = target: Glycogen synthase kinase-3 beta (Homo sapiens, UniProt P49841); experiment: Inhibition of recombinant GSK-3beta (unknown origin) using GS peptide as substrate in presence of ATP incubated for 1 hrs by ADP-Glo kinase assay
Chain of Glycogen synthase kinase-3 beta (P49841 whole entry): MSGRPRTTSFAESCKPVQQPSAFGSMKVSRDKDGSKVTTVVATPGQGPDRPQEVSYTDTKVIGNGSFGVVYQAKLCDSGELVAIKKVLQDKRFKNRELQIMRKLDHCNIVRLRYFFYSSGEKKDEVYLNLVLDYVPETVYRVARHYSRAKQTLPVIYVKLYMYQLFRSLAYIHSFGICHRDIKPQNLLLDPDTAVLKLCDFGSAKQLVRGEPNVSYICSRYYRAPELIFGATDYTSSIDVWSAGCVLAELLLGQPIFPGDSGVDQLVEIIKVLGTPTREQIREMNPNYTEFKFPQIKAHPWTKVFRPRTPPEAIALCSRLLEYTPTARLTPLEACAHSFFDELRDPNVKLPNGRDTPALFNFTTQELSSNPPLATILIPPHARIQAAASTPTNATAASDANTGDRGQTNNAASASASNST

Tyrosinase [2] = target: T1, Tyrosinase (Agaricus bisporus, UniProt O42713); experiment: Inhibition of mushroom tyrosinase using L-tyrosine as substrate incubated for 30 mins by spectrophotometric analysis
T1 sequence (O42713 whole entry): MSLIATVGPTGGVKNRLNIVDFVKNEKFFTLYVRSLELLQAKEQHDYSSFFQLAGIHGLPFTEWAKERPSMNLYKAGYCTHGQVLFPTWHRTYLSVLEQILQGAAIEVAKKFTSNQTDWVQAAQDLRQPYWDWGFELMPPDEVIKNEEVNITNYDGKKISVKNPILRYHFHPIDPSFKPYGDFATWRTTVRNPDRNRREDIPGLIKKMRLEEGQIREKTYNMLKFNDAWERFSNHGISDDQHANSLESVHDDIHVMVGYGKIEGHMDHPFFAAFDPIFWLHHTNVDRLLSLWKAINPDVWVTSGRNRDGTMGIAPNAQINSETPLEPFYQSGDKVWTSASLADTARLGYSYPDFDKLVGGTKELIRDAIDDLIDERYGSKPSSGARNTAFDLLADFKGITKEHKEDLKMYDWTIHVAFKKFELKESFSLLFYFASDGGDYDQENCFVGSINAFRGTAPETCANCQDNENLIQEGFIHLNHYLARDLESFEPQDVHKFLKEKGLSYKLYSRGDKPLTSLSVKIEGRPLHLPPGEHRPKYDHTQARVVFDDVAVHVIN

NCI/ADR-RES = experiment: Antiproliferative activity against multi drug resistant human NCI-ADR-RES cells assessed as inhibition of cell proliferation incubated for 72 hrs by MTT assay; format: functional, cell-based
MES-SA/Dx5 = experiment: Antiproliferative activity against multi drug resistant human MES-SA/Dx5 cells assessed as inhibition of cell proliferation incubated for 72 hrs by MTT assay; format: functional, cell-based; details: MES-SA/Dx5, 72 h
[3] = Antiproliferative activity against doxorubicin resistant human MDA-MB-231-Dox cells assessed as inhibition of cell proliferation incubated for 72 hrs by MTT assay; format: functional, cell-based
HL60/ADR = experiment: Antiproliferative activity against drug resistant human HL60/ADR cells assessed as inhibition of cell proliferation incubated for 72 hrs by MTT assay; format: functional, cell-based
[4] = Antiproliferative activity against multidrug resistant human CEM/VLB100 cells assessed as inhibition of cell proliferation incubated for 72 hrs by MTT assay; format: functional, cell-based; details: CEM/VLB100, 72 h
KB 3-1 = experiment: Antiproliferative activity against multidrug resistant human KB-3-1 cells assessed as inhibition of cell proliferation incubated for 72 hrs by MTT assay; format: functional, cell-based; details: KB 3-1, 72 h
[5] = Antiproliferative activity against multidrug resistant human MV522/MDR1 cells assessed as inhibition of cell proliferation incubated for 72 hrs by MTT assay; format: functional, cell-based; details: MV522/MDR1, 72 h
Tubulin [6] = target: Tubulin (Bos taurus, UniProt Q6B856+Q862L2+Q862F3); experiment: Inhibition of bovine brain tubulin polymerization preincubated for 30 mins followed by GTP addition and measured after 20 mins by spectrophotometric analysis
Tubulin [7] = target: Tubulin (Sus scrofa, UniProt P02554+P02550); experiment: Inhibition of porcine brain tubulin polymerization preincubated for 1 mins followed by GTP addition and measured for 60 mins at 1 min interval by fluorescence assay
HeLa = experiment: Antiproliferative activity against human HeLa cells assessed as reduction in cell viability incubated for 48 hrs by MTT assay; format: functional, cell-based
A549 = experiment: Antiproliferative activity against human A549 cells assessed as reduction in cell viability incubated for 48 hrs by MTT assay; format: functional, cell-based; details: A549, 48 h
Bel-7402 = experiment: Antiproliferative activity against human Bel-7402 cells assessed as reduction in cell viability incubated for 48 hrs by MTT assay; format: functional, cell-based; details: Bel-7402, 48 h
PC-3 = experiment: Antiproliferative activity against human PC-3 cells assessed as reduction in cell viability incubated for 48 hrs by MTT assay; format: functional, cell-based; details: PC-3, 48 h
K562 = experiment: Antiproliferative activity against human K562 cells assessed as reduction in cell viability incubated for 48 hrs by MTT assay; format: functional, cell-based; details: K562, 48 h
[8] = Antioxidant activity assessed as DPPH radical scavenging activity at 100 uM measured for 20 mins by spectrophotometric analysis; format: functional
[9] = Antioxidant activity assessed as DPPH radical scavenging activity at 100 uM measured for 60 mins by spectrophotometric analysis; format: functional
[10] = Antioxidant activity assessed as ABTS radical scavenging activity at 100 uM incubated for 12 to 16 hrs in dark; format: functional; details: time 12-16 hrs
[11] = Inhibition of AAPH induced lipid peroxidation; details: dose or concentration not given here
Ehrlich = experiment: Antitumor activity against mouse Ehrlich ascites carcinoma allografted in Swiss albino mouse assessed as tumor growth inhibition at 20 mg/kg, ip for 12 days; format: functional; details: 288 h, time 12 day, read-out: TGI
Tyrosinase [12] = target: T1, Tyrosinase; experiment: Inhibition of mushroom tyrosinase using L-DOPA as substrate preincubated for 10 mins followed by substrate addition and measured after 1 mins by spectrophotometric analysis
[13] = target: Amyloid-beta precursor protein (Homo sapiens, UniProt P05067); experiment: Binding affinity to human brain homogenate amyloid beta by radioligand competition binding assay; format: tissue-based
Chain of Amyloid-beta precursor protein (P05067 whole entry): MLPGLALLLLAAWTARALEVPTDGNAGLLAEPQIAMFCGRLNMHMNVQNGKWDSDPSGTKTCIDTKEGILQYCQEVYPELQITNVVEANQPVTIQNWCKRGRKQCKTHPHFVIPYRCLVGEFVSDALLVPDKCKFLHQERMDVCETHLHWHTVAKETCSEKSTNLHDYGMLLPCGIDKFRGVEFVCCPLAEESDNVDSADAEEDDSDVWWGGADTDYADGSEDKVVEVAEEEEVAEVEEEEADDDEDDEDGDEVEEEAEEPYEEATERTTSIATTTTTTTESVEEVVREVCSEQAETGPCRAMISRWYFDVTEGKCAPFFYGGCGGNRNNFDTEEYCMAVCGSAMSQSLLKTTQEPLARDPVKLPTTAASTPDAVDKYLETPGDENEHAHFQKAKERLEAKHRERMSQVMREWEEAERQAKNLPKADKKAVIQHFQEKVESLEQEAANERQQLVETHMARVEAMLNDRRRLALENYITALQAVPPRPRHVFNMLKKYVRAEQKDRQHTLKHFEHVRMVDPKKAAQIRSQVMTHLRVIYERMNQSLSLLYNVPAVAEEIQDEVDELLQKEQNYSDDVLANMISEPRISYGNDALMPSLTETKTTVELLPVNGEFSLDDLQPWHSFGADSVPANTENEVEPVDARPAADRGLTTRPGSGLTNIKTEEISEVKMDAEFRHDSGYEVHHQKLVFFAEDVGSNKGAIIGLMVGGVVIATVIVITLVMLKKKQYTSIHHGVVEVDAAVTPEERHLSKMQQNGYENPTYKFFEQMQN

[14] = target: Serine/threonine-protein kinase pim-1 (Homo sapiens, UniProt P11309); experiment: Inhibition of PIM1 (unknown origin) using poly-Glu-Tyr (4:1) as substrate in presence of [gamma-33P-ATP] incubated for 2 hrs by radiometric kinase assay
Chain of Serine/threonine-protein kinase pim-1 (P11309 whole entry): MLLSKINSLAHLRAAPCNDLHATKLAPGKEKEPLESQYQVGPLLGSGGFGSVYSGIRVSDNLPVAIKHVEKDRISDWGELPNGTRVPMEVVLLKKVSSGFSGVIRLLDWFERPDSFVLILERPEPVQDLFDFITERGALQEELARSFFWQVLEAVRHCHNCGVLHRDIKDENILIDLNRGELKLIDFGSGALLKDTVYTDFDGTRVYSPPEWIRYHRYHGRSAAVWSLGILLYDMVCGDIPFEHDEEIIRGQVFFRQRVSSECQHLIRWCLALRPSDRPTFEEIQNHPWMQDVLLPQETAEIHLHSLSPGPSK

Tyrosinase [15] = target: T1, Tyrosinase; experiment: Inhibition of mushroom tyrosinase using L-DOPA as substrate incubated for 30 mins by spectrophotometric analysis
MCF7 = experiment: Antiproliferative activity against human MCF7 cells assessed as reduction in cell viability incubated for 24 hrs by soft agar assay; format: functional, cell-based; details: MCF7, 24 h
MDA-MB-231 = experiment: Antiproliferative activity against human MDA-MB-231 cells assessed as reduction in cell viability incubated for 24 hrs by soft agar assay; format: functional, cell-based; details: MDA-MB-231, 24 h
[16] = Inhibition of Saccharomyces cerevisiae full-length ai5gamma intron self-splicing by fluorimetric assay
Candida parapsilosis = experiment: Antifungal activity against Candida parapsilosis assessed as reduction in fungal growth; format: functional; details: Lodderomyces parapsilosis

O=C1/C(=C/c2c[nH]c3ncccc23)Oc2cc(OCc3cccc(F)c3)ccc21
pIC50 [1]: 6.35

O=C1/C(=C/c2ccc(O)cc2O)Cc2ccc3ccccc3c21
pIC50 (Tyrosinase [2]): 6.82

COc1cc2c(c(N)c1OC)C(=O)/C(=C/c1cc(C)c(O)c(C)c1)C2
pIC50 (NCI/ADR-RES): 8.70 | pIC50 (MES-SA/Dx5): 8.70 | pIC50 [3]: 8.70 | pIC50 (HL60/ADR): 8.70 | pIC50 [4]: 8.70 | pIC50 (KB 3-1): 8.70 | pIC50 [5]: 8.70 | IC50 (Tubulin [6]): 1700 nM

COc1cc2c(c(OC)c1OC)C/C(=C\c1cccc3[nH]ccc13)C2=O
IC50 (Tubulin [7]): 1990 nM | pIC50 (HeLa): 7.52 | pIC50 (A549): 7.52 | pIC50 (Bel-7402): 7.52 | pIC50 (PC-3): 7.52 | pIC50 (K562): 7.52

O=C1/C(=C/c2ccc(O)c(O)c2)Oc2cc(O)ccc21
Activity [8]: 89% | Activity [9]: 89% | Activity [10]: 71% | inhibition [11]: 53%

COc1cc(C2/C(=C/c3ccc4c(c3)OCO4)C(=O)c3cc(OC)c(OC)c(OC)c32)cc(OC)c1OC (stereo unspecified)
inhibition in vivo at 20 mg/kg (Ehrlich): 45.5%

CN(C)c1ccc(/C=C2\Cc3ccccc3C2=O)c([N+](=O)[O-])c1
pIC50 (Tyrosinase [12]): 5.09

CN(C)c1ccc(/C=C2\Cc3cc(I)ccc3C2=O)cc1
pKi [13]: 7.00

O=C1/C(=C/c2cc(-c3ccncc3)[nH]n2)Oc2cc(O)cc(O)c21
pIC50 [14]: 4.74

O=C1/C(=C/c2ccc(O)cc2O)Cc2ccccc21
pIC50 (Tyrosinase [15]): 7.47

COc1cc(C2/C(=C/c3ccc(F)cc3)C(=O)c3cc(OC)c(OC)c(OC)c32)cc(OC)c1OC (stereo unspecified)
pIC50 (MCF7): 4.57 | pIC50 (MDA-MB-231): 4.57

CN(Cc1ccccc1)Cc1c(O)ccc2c1O/C(=C\c1ccc3c(c1)OCO3)C2=O
pIC50 [1]: 6.51

COc1cc(O)c2c(c1)O/C(=C\c1c[nH]c3nc(Cl)ccc13)C2=O
pIC50 [14]: 5.06

O=C1/C(=C/c2cc(O)c(O)c(O)c2)Oc2cc(O)cc(O)c21
pKi [16]: 5.24 | MIC (Candida parapsilosis): 30 µM (≈ 9.07 µg/mL)
